Measured values as given in patent US8158809B2 (priority 2003, dated 2012).

Tested on: HCT116
Experiment: Cell colony formation assay
Assay type: cell-based
Settings: 72 hours with drug, colonies counted after 7 days
Procedure: This example provides directions for growing cells and testing compounds of the invention for their effect on the growth of the cells. All cells were purchased from DCTDC Tumor Repository, NCI, NIH.
The cells were incubated in a CO2 incubator at 37° C. for 5 hours for attachment to the bottom of Petri dishes. Drugs were made fresh in medium at ten times the final concentration, and then 0.3 ml of this stock solution was added to the 2.7 ml of medium in the dish. The cells were then incubated with drugs for 72 hours at 37° C. At the end of the incubation the drug-containing media were decanted, the dishes were rinsed with 4 ml of Hank's Balance Salt Solution (HBSS), 5 ml of fresh medium was added, and the dishes were returned to the incubator for colony formation. The cell colonies were counted using colony counter after incubation for 7 days for HCT116 cells and PC-3 cells and 8 days for VM46 cells, respectively. Cell survival (%) was calculated, as shown in Table I below for HCT 116 cells.

| SMILES | In Vitro Efficacy: Survival (%) of HCT116 (100 nM) [%] | In Vitro Efficacy: Survival (%) of HCT116 (1000 nM) [%] | In Vitro Efficacy: Survival (%) of HCT116 (10 nM) [%] |
| --- | --- | --- | --- |
| COc1cc([C@@H]2c3cc4c(cc3[C@H](OC(=O)[C@@H]3CCCN3C(=O)OC(C)(C)C)[C@H]3COC(=O)[C@H]23)OCO4)cc(OC)c1OC [Compound 000203, Podophyllotoxin-4-O-ester of N-(tert-Butoxycarbonyl)-L-proline] | 89.76 | 0 |  |
| COc1cc(C2c3cc4c(cc3C(OC(=O)COc3cccc(Cl)c3)C3COC(=O)C23)OCO4)cc(OC)c1OC (stereo not shown) [Compound 000622, Podophyllotoxin-4-O-ester of 3-chlorophenoxyacetic acid] | 0 | 0 | 98.48 |
| COc1cc(C2c3cc4c(cc3C(OC(=O)C3Cc5ccccc5CN3C(=O)OC(C)(C)C)C3COC(=O)C23)OCO4)cc(OC)c1OC (stereo not shown) [Compound 000302, Podophyllotoxin-4-O-ester of N—BOC-1,2,3,4-Tetrahydroisoquinoline-3-carboxylic acid] | 100 | 0 |  |
